This passage reports T/C results from PubChem BioAssay AID248 (DTP/NCI, 2004).

Inconclusive results and toxic doses are left out.

The test system of the assay is L1210 leukemia ip in BDF1 mice, survival T/C. In words: NCI In Vivo Anticancer Drug Screen. Data for tumor model L1210 Leukemia (intraperitoneal) in B6D2F1 (BDF1) mice. Conditions: endpoint: mean survival time, higher = longer survival. In a few lines:
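Each compound was tested against a transplantable tumor grown in mice. The endpoint was survival, with treated animals benchmarked against vehicle controls as a simple ratio.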

[1] abbreviates: dose: 100.0 mg/kg/injection, schedule: Q01DX009 (ip), vehicle: Klucel (hydroxypropylcellulose) (HPC).
Setting [2] is: dose: 200.0 mg/kg/injection, schedule: Q01DX009 (ip), vehicle: Klucel (hydroxypropylcellulose) (HPC).
Where [3] appears, read: dose: 100.0 mg/kg/injection, schedule: Q04DX003 (ip), vehicle: Klucel (hydroxypropylcellulose) (HPC).
[4] abbreviates: dose: 200.0 mg/kg/injection, schedule: Q04DX003 (ip), vehicle: Klucel (hydroxypropylcellulose) (HPC).
[5] abbreviates: dose: 400.0 mg/kg/injection, schedule: Q04DX003 (ip), vehicle: Klucel (hydroxypropylcellulose) (HPC).
Where [6] appears, read: dose: 100.0 mg/kg/injection, schedule: Q01DX001 (ip), vehicle: carboxymethylcellulose (CMC).
The mark [7] stands for this setting: dose: 200.0 mg/kg/injection, schedule: Q01DX001 (ip), vehicle: carboxymethylcellulose (CMC).
Where [8] appears, read: dose: 400.0 mg/kg/injection, schedule: Q01DX001 (ip), vehicle: carboxymethylcellulose (CMC).
Where [9] appears, read: dose: 75.0 mg/kg/injection, schedule: Q01DX001 (ip), vehicle: saline.
Where [10] appears, read: dose: 100.0 mg/kg/injection, schedule: Q01DX009 (ip), vehicle: saline with Tween-80.
Setting [11] is: dose: 200.0 mg/kg/injection, schedule: Q01DX009 (ip), vehicle: saline with Tween-80.

Turning to `CCCCCCCCC(CCCCCCCC)CC1CCC2CCCC21` (configuration not stated), the T/C is 93 % of control (dose: 75.0 mg/kg/injection, schedule: Q01DX001 (ip), vehicle: saline with Tween-80); 90 % of control (dose: 150.0 mg/kg/injection, schedule: Q01DX001 (ip), vehicle: saline with Tween-80); 90 % of control (dose: 300.0 mg/kg/injection, schedule: Q01DX001 (ip), vehicle: saline with Tween-80).
`NNC(=O)c1ccc(Cl)cc1Nc1ccccc1`: the T/C (dose: 100.0 mg/kg/injection, schedule: Q01DX001 (ip), vehicle: Klucel (hydroxypropylcellulose) (HPC)) is 95 % of control; the T/C under setting [1] is 107 % of control; the T/C (dose: 200.0 mg/kg/injection, schedule: Q01DX001 (ip), vehicle: Klucel (hydroxypropylcellulose) (HPC)) was 86 % of control; the T/C under setting [2] is 94 % of control; the T/C (dose: 400.0 mg/kg/injection, schedule: Q01DX001 (ip), vehicle: Klucel (hydroxypropylcellulose) (HPC)) is 97 % of control.
With `O=P(NC12CC3CC(CC(C3)C1)C2)(OCc1ccccc1)OCc1ccccc1`, the T/C is, setting by setting: (dose: 75.0 mg/kg/injection, schedule: Q01DX009 (ip), vehicle: Klucel (hydroxypropylcellulose) (HPC)) 97 % of control; (dose: 150.0 mg/kg/injection, schedule: Q01DX009 (ip), vehicle: Klucel (hydroxypropylcellulose) (HPC)) 90 % of control; (dose: 300.0 mg/kg/injection, schedule: Q01DX009 (ip), vehicle: Klucel (hydroxypropylcellulose) (HPC)) 95 % of control.
With `CCNC(=O)N(O)C1(C#N)CCCCC1`, the T/C is, setting by setting: (dose: 100.0 mg/kg/injection, schedule: Q01DX001 (ip), vehicle: other) 98 % of control; (dose: 200.0 mg/kg/injection, schedule: Q01DX001 (ip), vehicle: other) 96 % of control; (dose: 400.0 mg/kg/injection, schedule: Q01DX001 (ip), vehicle: other) 98 % of control.
On to `CSc1ccc(NC(=O)Nc2cccc(F)c2)cc1`, for which the T/C runs as follows: (dose: 100.0 mg/kg/injection, schedule: Q01DX009 (ip), vehicle: other) 108 % of control; (dose: 200.0 mg/kg/injection, schedule: Q01DX009 (ip), vehicle: other) 96 % of control.
In the case of `O=C1NC(=O)C(c2cc(Cl)co2)N1` (configuration not stated), the T/C is, setting by setting: under setting [3], 105 % of control; under setting [4], 108 % of control; under setting [5], 101 % of control.
As for `Cc1ccc(C)n1CCO`, the T/C runs as follows: (dose: 44.0 mg/kg/injection, schedule: Q01DX Z (ip), vehicle: saline) 106 % of control; (dose: 66.0 mg/kg/injection, schedule: Q01DX Z (ip), vehicle: saline) 94 % of control; (dose: 100.0 mg/kg/injection, schedule: Q01DX Z (ip), vehicle: saline) 96 % of control.
As for `N#Cc1cnn(CCO)c1N`, the T/C runs as follows: under setting [6], 103 % of control; (dose: 100.0 mg/kg/injection, schedule: Q01DX009 (ip), vehicle: water) 107 % of control; (dose: 100.0 mg/kg/injection, schedule: Q04DX003 (ip), vehicle: water) 115 % of control; under setting [7], 97 % of control; (dose: 200.0 mg/kg/injection, schedule: Q01DX009 (ip), vehicle: water) 101 % of control; (dose: 200.0 mg/kg/injection, schedule: Q04DX003 (ip), vehicle: water) 110 % of control. In addition, the T/C reads like this: under setting [8], 100 % of control; (dose: 400.0 mg/kg/injection, schedule: Q01DX009 (ip), vehicle: water) 114 % of control; (dose: 400.0 mg/kg/injection, schedule: Q04DX003 (ip), vehicle: water) 104 % of control.
As to `NP(=O)(OCCCOCc1ccccc1)N(CCCl)CCCl` (configuration not stated), the T/C is, setting by setting: (dose: 125.0 mg/kg/injection, schedule: Q01DX001 (ip), vehicle: saline) 103 % of control; (dose: 250.0 mg/kg/injection, schedule: Q01DX001 (ip), vehicle: saline) 108 % of control; (dose: 500.0 mg/kg/injection, schedule: Q01DX001 (ip), vehicle: saline) 100 % of control.
As to `Cc1ccc2c(c1)C1CCC3(CC1OC2(C)C)OC(C)(C)c1cc(C)ccc13` (configuration not stated), the T/C was 95 % of control under setting [1]; 105 % of control under setting [3]; 89 % of control under setting [2]; 95 % of control under setting [4]; 95 % of control under setting [5].
`CN(C)C=Nc1ccc(C#N)cc1`: the T/C is, setting by setting: (dose: 100.0 mg/kg/injection, schedule: Q04DX002 (ip), vehicle: saline) 98 % of control; (dose: 200.0 mg/kg/injection, schedule: Q04DX002 (ip), vehicle: saline) 91 % of control; (dose: 400.0 mg/kg/injection, schedule: Q04DX002 (ip), vehicle: saline) 91 % of control.
For `COc1ccc(C(=O)OCCN(CCOC(=O)c2ccc(OC)cc2)c2c[nH]c(=O)[nH]c2=O)cc1`, the T/C by setting is: (dose: 50.0 mg/kg/injection, schedule: Q01DX001 (ip), vehicle: carboxymethylcellulose (CMC)) 106 % of control; under setting [6], 93 % of control; under setting [7], 95 % of control; under setting [8], 93 % of control.
In the case of `O=C1C=C(N2CCCC2)CC1`, the T/C is 101 % of control under setting [9] and 104 % of control (dose: 150.0 mg/kg/injection, schedule: Q01DX001 (ip), vehicle: saline).
In the case of `CCN(N=O)c1ccc(/C=C2/C=Cc3ccccc32)cc1`, the T/C under setting [6] was 95 % of control, the T/C under setting [7] is 90 % of control and the T/C under setting [8] is 101 % of control.
Consider `CN(C)c1nc(N)nc2c1ncn2C1OC(CO)CC1O` (configuration not stated), for which the T/C under setting [6] was 120 % of control, the T/C under setting [7] was 98 % of control and the T/C under setting [8] was 101 % of control.
In the case of `CCOC1=C(Br)C=CN(S(=O)(=O)c2ccc(C)cc2)c2ccccc21`, the T/C runs as follows: (dose: 100.0 mg/kg/injection, schedule: Q01DX009 (ip), vehicle: saline) 97 % of control; (dose: 200.0 mg/kg/injection, schedule: Q01DX009 (ip), vehicle: saline) 94 % of control; (dose: 400.0 mg/kg/injection, schedule: Q01DX009 (ip), vehicle: saline) 93 % of control.
`c1cc[nH]c1`: under setting [9], the T/C was 100 % of control.
As to `CCOC(=O)C(C(=O)OCC)C1CCS(=O)(=O)C1` (configuration not stated), the T/C is, setting by setting: under setting [10], 103 % of control; under setting [11], 96 % of control; (dose: 400.0 mg/kg/injection, schedule: Q01DX009 (ip), vehicle: saline with Tween-80) 92 % of control.
Regarding `Cc1ccc(C(=O)CN(Cc2ccccc2)Cc2ccccc2)cc1`, the T/C by setting is: under setting [1], 103 % of control; under setting [3], 98 % of control; under setting [2], 97 % of control; under setting [4], 92 % of control; (dose: 400.0 mg/kg/injection, schedule: Q01DX009 (ip), vehicle: Klucel (hydroxypropylcellulose) (HPC)) 92 % of control; under setting [5], 91 % of control.
For the compound `CSC(c1ccccc1F)=[N+]1CCCCC1`, the T/C (dose: 5.0 mg/kg/injection, schedule: Q01DX001 (ip), vehicle: saline) is 100 % of control; the T/C (dose: 10.0 mg/kg/injection, schedule: Q01DX001 (ip), vehicle: saline) was 96 % of control; the T/C (dose: 20.0 mg/kg/injection, schedule: Q01DX001 (ip), vehicle: saline) is 95 % of control.
`CCCCS(=O)(=O)Nc1ccc(Nc2c3ccccc3nc3ccccc23)c(OC)c1`: the T/C is 150 % of control (dose: 12.5 mg/kg/injection, schedule: Q01DX009 (ip), vehicle: saline); 153 % of control (dose: 25.0 mg/kg/injection, schedule: Q01DX009 (ip), vehicle: saline); 154 % of control (dose: 50.0 mg/kg/injection, schedule: Q01DX009 (ip), vehicle: Klucel (hydroxypropylcellulose) (HPC)).
For `CC(=O)Nc1cc([N+](=O)[O-])cc(C)c1O`, the T/C is 97 % of control under setting [10] and 89 % of control under setting [11].
Regarding `C/C=C(\C)C(=NC)Nc1ccc(Cl)c(Cl)c1`, the T/C reads like this: (dose: 222.0 mg/kg/injection, schedule: Q01DX Z (ip), vehicle: methylcellulose (MC)) 94 % of control; (dose: 333.0 mg/kg/injection, schedule: Q01DX Z (ip), vehicle: methylcellulose (MC)) 90 % of control.
